Measurements from patent publication US10227331B2 (priority 2015, dated 2019).

How the values were obtained:
[1] = biological target: IMP-1 (Serratia marcescens, UniProt P52699); test: biochemical; assay type: biochemical; details: CCF2-FA substrate, 2 hours at 25° C; read-out: IMP-1 IC50
Outline: (§1)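 Enzyme activity was measured by fluorescence using CCF2-FA, a cephalosporin-linked 7-hydroxycoumarin/fluorescein substrate, with inhibitor, metallo-β-lactamase and substrate incubated together for 2 hours at 25° C. IC50 came from a 4-parameter fit of inhibition versus log inhibitor concentration.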

[2] = biological target: NDM-1 (Klebsiella pneumoniae, UniProt C7C422); test: biochemical; assay type: biochemical; details: CCF2-FA substrate, 2 hours at 25° C; read-out: NDM-1 IC50
Sequence of NDM-1 (C7C422 whole entry, looked up, species assumed): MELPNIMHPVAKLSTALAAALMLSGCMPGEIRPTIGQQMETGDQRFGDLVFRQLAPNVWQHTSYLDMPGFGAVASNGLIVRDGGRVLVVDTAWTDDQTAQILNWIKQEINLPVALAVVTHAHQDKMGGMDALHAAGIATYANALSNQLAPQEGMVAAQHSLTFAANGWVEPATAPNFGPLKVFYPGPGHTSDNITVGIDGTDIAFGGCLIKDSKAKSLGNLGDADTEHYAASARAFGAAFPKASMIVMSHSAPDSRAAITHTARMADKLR
Outline: as §1

[3] = test system: Klebsiella pneumoniae expressing VIM-1 (IHMA599644); assay type: cell-based; details: with imipenem 1 μg/ml; 95% inhibition of bacterial growth
Outline: (§2)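 Restoration of imipenem susceptibility (1 μg/ml imipenem) was judged by absorbance after 22–24 h at 35° C. Test compound was added to bacteria suspended 1:100 in 1.1× CAMHB from overnight blood-agar cultures.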

[4] = test system: Serratia marcescens expressing IMP-1 (CL5741); assay type: cell-based; details: with imipenem 1 μg/ml; 95% inhibition of bacterial growth
Outline: as §2

[5] = test system: Escherichia coli expressing NDM-1 (CLB30005, CLB30016); assay type: cell-based; details: with imipenem 1 μg/ml; 95% inhibition of bacterial growth
Outline: as §2

[6] = test system: P. aeruginosa expressing IMP-1, efflux− (MB9799); test: Efflux: concentration of MBL inhibitor which restores susceptibility to imipenem; assay type: cell-based, Pseudomonas aeruginosa; details: imipenem at 2 μg/mL, in the presence of a class A, C, D serine β-lactamase inhibitor closely related to relebactam
From the text: (§3) The strain background is Pseudomonas aeruginosa PAO1.

[7] = biological target: VIM-1 (Pseudomonas aeruginosa (strain ATCC 15692 / DSM 22644 / CIP 104116 / JCM 14847 / LMG 12228 / 1C / PRS 101 / PAO1), UniProt A0A0F7KYQ8); test: biochemical; details: CCF2-FA substrate, 2 hours at 25° C
Outline: as §1

[8] = test system: P. aeruginosa expressing IMP-1, efflux+ (MB9798); assay type: cell-based, Pseudomonas aeruginosa; details: for P. aeruginosa expressing IMP-1, efflux+ (MB9798) MITC95: imipenem at 2 μg/mL, in the presence of a class A, C, D serine β-lactamase inhibitor closely related to relebactam; for Efflux ratio: ratio MITC95 PA_9798/MITC95 PA_9799
From the text: as §3

Sequence of IMP-1 (P52699 whole entry, looked up, species assumed): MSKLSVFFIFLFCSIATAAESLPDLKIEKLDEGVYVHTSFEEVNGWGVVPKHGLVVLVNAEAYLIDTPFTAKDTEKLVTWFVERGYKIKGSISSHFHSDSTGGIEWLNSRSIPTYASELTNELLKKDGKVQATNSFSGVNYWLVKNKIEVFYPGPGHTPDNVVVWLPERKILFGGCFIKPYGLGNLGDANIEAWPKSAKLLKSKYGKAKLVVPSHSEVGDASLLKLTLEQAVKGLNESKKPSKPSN

Row | SMILES | IC50 [1] | IC50 [2] | Klebsiella pneumoniae expressing VIM-1 (IHMA599644) MITC95 [3] | Serratia marcescens expressing IMP-1 (CL5741) MITC95 [4] | Escherichia coli expressing NDM-1 (CLB30016) MITC95 [5] | P. aeruginosa expressing IMP-1, efflux− (MB9799) MITC95 [6] | IC50 [7] | P. aeruginosa expressing IMP-1, efflux+ (MB9798) MITC95 [8] | Efflux ratio [8]
1 | CS(=O)(=O)N1CC(S(=O)(=O)c2ccc(-c3cccc4[nH]c(N)nc34)c(-c3nn[nH]n3)c2S(N)(=O)=O)C1 [Example 55, 3-(2-amino-1H-benzo[d]imidazol-4-yl)-6-(1-(methylsulfonyl)azetidin-3-ylsulfonyl)-2-(2H-tetrazol-5-yl)benzenesulfonamide] | 1.42 nM | 0.0818 nM | 6.25 µM | 3.125 µM | 3.125 µM | 1.563 µM | 0.312 nM | 50 µM | 31.99
2 | NC(=O)N1CC(S(=O)(=O)c2ccc(-c3cccc4[nH]c(N)nc34)c(-c3nn[nH]n3)c2S(N)(=O)=O)C1 [Example 56, 3-(4-(2-amino-1H-benzo[d]imidazol-4-yl)-2-sulfamoyl-3-(2H-tetrazol-5-yl)phenylsulfonyl)azetidine-1-carboxamide] | 2.82 nM | 0.18 nM | 6.25 µM | 3.125 µM | 6.25 µM | 3.125 µM | 0.35 nM | 3.125 µM | 1.00
3 | CCOC(=O)N1CC(S(=O)(=O)c2ccc(-c3cccc4[nH]c(N)nc34)c(-c3nn[nH]n3)c2S(N)(=O)=O)C1 [Example 57, ethyl 3-(4-(2-amino-1H-benzo[d]imidazol-4-yl)-2-sulfamoyl-3-(2H-tetrazol-5-yl)phenylsulfonyl)azetidine-1-carboxylate] | 1.98 nM | 0.264 nM | 12.5 µM | 6.25 µM | 6.25 µM | 3.125 µM | 0.446 nM | 200 µM | 64.00
4 | NS(=O)(=O)c1c(S(=O)(=O)C2CNC2)ccc(-c2cccn3ccnc23)c1-c1nnn[nH]1 [Example 58, 6-(Azetidin-3-ylsulfonyl)-3-(imidazo[1,2-a]pyridin-8-yl)-2-(1H-tetrazol-5-yl)benzenesulfonamide] | 0.597 nM | 0.378 nM | 3.125 µM | 1.563 µM | 0.7813 µM | 1.563 µM | 0.342 nM | 1.563 µM | 1.00
5 | NC(=O)c1cn2cccc(-c3ccc(S(=O)(=O)C4CNC4)c(S(N)(=O)=O)c3-c3nnn[nH]3)c2n1 [Example 59, 8-(4-(azetidin-3-ylsulfonyl)-3-sulfamoyl-2-(1H-tetrazol-5-yl)phenyl)imidazo[1,2-a]pyridine-2-carboxamide] | 1.44 nM | 0.131 nM | 3.125 µM | 3.125 µM | 3.125 µM | 1.563 µM | 0.187 nM | 3.125 µM | 2.00
6 | NS(=O)(=O)c1c(S(=O)(=O)C2CNC2)ccc(-c2cccn3cncc23)c1-c1nnn[nH]1 [Example 60, 6-(azetidin-3-ylsulfonyl)-3-(imidazo[1,5-a]pyridin-8-yl)-2-(1H-tetrazol-5-yl)benzenesulfonamide] | 2.35 nM | 0.811 nM | 6.25 µM | 3.125 µM | 1.563 µM | 3.125 µM | 0.408 nM | 12.5 µM | 4.00
7 | NS(=O)(=O)c1c(S(=O)(=O)C2CNC2)ccc(-c2cccn3cc(C(=O)O)nc23)c1-c1nnn[nH]1 [Example 61, 8-(4-(Azetidin-3-ylsulfonyl)-3-sulfamoyl-2-(1H-tetrazol-5-yl)phenyl)imidazo[1,2-a]pyridine-2-carboxylic Acid] | 2.22 nM | 0.254 nM | 25 µM | 6.25 µM | 12.5 µM | 12.5 µM | 0.677 nM | 12.5 µM | 1.00
8 | N=C(N)c1nc2c(-c3ccc(S(=O)(=O)C4CNC4)c(S(N)(=O)=O)c3-c3nnn[nH]3)cccc2s1 [Example 62, 4-(4-(Azetidin-3-ylsulfonyl)-3-sulfamoyl-2-(1H-tetrazol-5-yl)phenyl)benzo[d]thiazole-2-carboximidamide] | 2.63 nM | 0.345 nM | 1.563 µM | 1.563 µM | 0.3906 µM | 0.7813 µM | 0.396 nM | 1.563 µM | 2.00
9 | NS(=O)(=O)c1c(SC2CNC2)ccc(-c2cccc3nccn23)c1-c1nnn[nH]1 [Example 63, 6-(Azetidin-3-ylthio)-3-(imidazo[1,2-a]pyridin-5-yl)-2-(1H-tetrazol-5-yl)benzenesulfonamide] | 125 nM | 5.91 nM | 3.125 µM | 3.125 µM | 1 µM | 1.781 µM | 30.5 nM | 50 µM | 28.07
10 | NCCS(=O)(=O)c1ccc(-c2cccn3ccnc23)c(-c2nnn[nH]2)c1S(N)(=O)=O [Example 64, 6-((2-Aminoethyl)sulfonyl)-3-(imidazo[1,2-a]pyridin-8-yl)-2-(1H-tetrazol-5-yl)benzenesulfonamide] | 0.359 nM | 1.06 nM | 3.125 µM | 1.563 µM | 1.563 µM | 1.563 µM | 0.339 nM | 1.563 µM | 1.00
11 | Nc1cn2cccc(-c3ccc(S(=O)(=O)C4CNC4)c(S(N)(=O)=O)c3-c3nnn[nH]3)c2n1 [Example 65, 3-(2-Aminoimidazo[1,2-a]pyridin-8-yl)-6-(azetidin-3-ylsulfonyl)-2-(H-tetraazol-5-yl)benzenesulfonamide] | 2.5 nM | 0.784 nM | 12.5 µM | 6.25 µM | 1.563 µM | 6.25 µM | 0.627 nM | 25 µM | 4.00
12 | NS(=O)(=O)c1c(S(=O)(=O)C2CNC2)ccc(-c2cccc3nccn23)c1-c1nnn[nH]1 [Example 66, 6-(Azetidin-3-ylsulfonyl)-3-(imidazo[1,2-a]pyridin-5-yl)-2-(1H-tetrazol-5-yl)benzenesulfonamide] | 9.67 nM | 0.591 nM | 12.5 µM | 6.25 µM | 3.125 µM | 6.25 µM | 0.569 nM | 50 µM | 8.00
13 | NC(=O)c1ccc(-c2ccc(S(=O)(=O)C3CNC3)c(S(N)(=O)=O)c2-c2nnn[nH]2)c(N)n1 [Example 67, 6-Amino-5-(4-(azetidin-3-ylsulfonyl)-3-sulfamoyl-2-(1H-tetrazol-5-yl)phenyl)picolinamide] | 1.32 nM | 0.376 nM | 3.125 µM | 3.125 µM | 1.563 µM | 1.563 µM | 0.333 nM | 3.125 µM | 2.00
